From US20040014030A1, “Enzymatic assay of HIV protease inhibitors” (priority 2002, published 2004)
Where a SMILES comes first, the peptide text is derived from it.

Molecular target: T1, HIV-1 protease (Human immunodeficiency virus type 1 group M subtype B, UniProt P04585)
T1 construct: the enzyme HIV-1 protease; purchased BACHEM AMERICAS (King of Prussia, Pa.)
Assay: Kinetic parameter determination: hydrolysis of chromogenic substrate by HIV-1 PR monitored at 300 nm
Assay type: biochemical
Settings: substrate hydrolysis by HIV-1 PR, 25° C., pH 4.9 assay buffer
Description: The synthetic chromogenic substrate, H-His-Lys-Ala-Arg-Val-Leu*Nph-Glu-Ala-Nle-Ser-NH2 (SEQ ID NO:3) and the enzyme HIV-1 protease (0.65 milligrams per milliliter (mg/mL), 16 International Units per milligram (IU/mg)) were purchased from BACHEM AMERICAS (King of Prussia, Pa.).
A stock solution containing 1 mg/mL of the chromogenic substrate in HIV PR assay buffer (50 millimolar (mM) sodium acetate, pH 4.9, 200 mM NaCl, 5 mM diothiothreitol (DTT), 10% (v/v) glycerol) was prepared by dissolving 5 mg chromogenic substrate in 5 mL of assay buffer. A substrate solution at a concentration of 101 micromolar (μM) was prepared in HIV-PR assay buffer from the substrate stock in a sample cup of Roche COBAS FARA. The stock mixture of HIV-1 PR as received was then diluted by 20-fold into this mixture. The hydrolysis of substrate by HIV-1 PR was monitored at 300 nm at 25° C. on a ROCHE DIAGNOSTICS COBAS FARA instrument.
A stock solution containing the chromogenic substrate at a concentration of 3 mg/mL was prepared by dissolving 5 mg chromogenic substrate in 1.67 mL of the assay buffer as described in Example 1. A series of substrate solutions were prepared in the HIV-PR assay buffer over the concentration range of 0-2282 μM. The stock solution of HIV-1 PR was then diluted by 20-fold into HIV PR assay buffer. The hydrolysis of substrate by HIV-1 PR was monitored at 300 nm at 25° C. on a ROCHE DIAGNOSTICS COBAS FARA instrument, as described in Example 1.

## CCCC[C@H](NC(=O)[C@H](C)NC(=O)[C@H](CCC(=O)O)NC(=O)[C@H](Cc1ccc([N+](=O)[O-])cc1)NC(=O)[C@H](CC(C)C)NC(=O)[C@@H](NC(=O)[C@H](CCCNC(=N)N)NC(=O)[C@H](C)NC(=O)[C@H](CCCCN)NC(=O)[C@@H](N)Cc1c[nH]cn1)C(C)C)C(=O)N[C@@H](CO)C(N)=O [chromogenic substrate, H-His-Lys-Ala-Arg-Val-Leu*Nph-Glu-Ala-Nle-Ser-NH2] (HELM PEPTIDE1{H.K.A.R.V.L.[O=C([C@H](Cc1ccc([N+](=O)[O-])cc1)N[*:1])[*:2]].E.A.[Nle].S.[am]}$$$$V2.0)
  apparent Vmax: 156.81 µmol/mg/min
  apparent kcat: 58.02 s⁻¹
Substrate 0-2282 μM, read-out: apparent Km
  Km: 67 ± 7.55 µM
